Tests used:
Alexandergrass = assay: Test D Alexandergrass; format: in vivo, Brachiaria plantaginea; conditions: Preemergence, 0 to 100 scale
How it was run: (§1)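 Herbicide screen in the greenhouse. A non-phytotoxic solvent mixture with surfactant carried the test chemical; in pre-emergence tests it went onto the soil of pots seeded no more than a day earlier. Injury was scored by eye 14 to 21 days after application, 0 to 100.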

bermuda-grass = assay: Test D bermudagrass; format: in vivo, Cynodon dactylon; conditions: Preemergence, 0 to 100 scale
How it was run: as §1

common ragweed = assay: Test D common ragweed; format: in vivo, Ambrosia elatior; conditions: Preemergence, 0 to 100 scale
How it was run: as §1

common groundsel = assay: Test D common groundsel; format: in vivo, Senecio vulgaris; conditions: Preemergence, 0 to 100 scale
How it was run: as §1

dallisgrass = assay: Test D dallisgrass; format: in vivo, Paspalum dilatatum; conditions: Preemergence, 0 to 100 scale
How it was run: as §1

goosegrass = assay: Test D goosegrass; format: in vivo, Eleusine indica; conditions: Preemergence, 0 to 100 scale
How it was run: as §1

guineagrass = assay: Test D guineagrass; format: in vivo, Panicum maximum; conditions: Preemergence, 0 to 100 scale
How it was run: as §1

itchgrass = assay: Test D itchgrass; format: in vivo, Rottboellia exaltata; conditions: Preemergence, 0 to 100 scale
How it was run: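 Scoring used a 0–100 visual injury scale, with 0 meaning no effect and 100 complete control, assessed 14–21 days after application alongside untreated pots. Preemergence treatments went onto sandy loam surfaces of separately potted seeds within a day of sowing.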

Johnson grass = assay: Test D Johnson grass; format: in vivo, Sorghum halepense; conditions: Preemergence, 0 to 100 scale
How it was run: as §1

pitted morningglory = assay: Test D pitted morningglory; format: in vivo, Ipomoea lacunosa; conditions: Preemergence, 0 to 100 scale
How it was run: as §1

sandbur = assay: Test D sandbur; format: in vivo, Cenchrus echinatus; conditions: Preemergence, 0 to 100 scale
How it was run: as §1

surinam grass = assay: Test D surinam grass; format: in vivo, Brachiaria decumbens; conditions: Preemergence, 0 to 100 scale
How it was run: as §1

tall mallow = assay: Test D tall mallow; format: in vivo, Malva sylvestris; conditions: Preemergence, 0 to 100 scale
How it was run: as §1

Green foxtail [1] = assay: Test D green foxtail; format: in vivo; conditions: Preemergence, 0 to 100 scale
How it was run: as §1

Green foxtail [2] = assay: Test D green foxtail; format: in vivo
How it was run: as §1

[3] = Rate 16 g/ha, 0 no injury, 100 complete control
[4] = Rate 32 g/ha, 0 no injury, 100 complete control
[5] = Rate 64 g/ha, 0 no injury, 100 complete control
[6] = Rate 125 g/ha, 0 no injury, 100 complete control
[7] = Rate 64 g/ha, Preemergence; 0 to 100 scale, 0 no injury, 100 complete control
[8] = Rate 125 g/ha, Preemergence; 0 to 100 scale, 0 no injury, 100 complete control

CCn1c(=O)on(C(=O)N(c2ccc(Cl)cc2)C(C)C)c1=O [Compound 108]
Plant response rating, Alexandergrass (Alexandergrass; [3]): 20 | Plant response rating, Alexandergrass (Alexandergrass; [4]): 20 | Plant response rating, Alexandergrass (Alexandergrass; [5]): 85 | Plant response rating, Alexandergrass (Alexandergrass; [6]): 98 | Plant response rating, Alexandergrass (Alexandergrass; Rate 250 g/ha): 100 | Plant response rating, Alexandergrass (Alexandergrass; Rate 500 g/ha): 100 | Plant response rating, Bermudagrass (bermuda-grass; [3]): 85 | Plant response rating, Bermudagrass (bermuda-grass; [4]): 98 | Plant response rating, Bermudagrass (bermuda-grass; [5]): 100 | Plant response rating, Bermudagrass (bermuda-grass; [6]): 100 | Plant response rating, Bermudagrass (bermuda-grass; Rate 250 g/ha): 100 | Plant response rating, Bermudagrass (bermuda-grass; Rate 500 g/ha): 100 | Plant response rating, C. ragweed (common ragweed; [3]): 0 | Plant response rating, C. ragweed (common ragweed; [4]): 0 | Plant response rating, C. ragweed (common ragweed; [5]): 0 | Plant response rating, C. ragweed (common ragweed; [6]): 0 | Plant response rating, C. ragweed (common ragweed; Rate 250 g/ha): 0 | Plant response rating, C. ragweed (common ragweed; Rate 500 g/ha): 80 | Plant response rating, Com. groundsel (common groundsel; [3]): 65 | Plant response rating, Com. groundsel (common groundsel; [4]): 75 | Plant response rating, Com. groundsel (common groundsel; [5]): 85 | Plant response rating, Com. groundsel (common groundsel; [6]): 100 | Plant response rating, Com. groundsel (common groundsel; Rate 250 g/ha): 100 | Plant response rating, Com. groundsel (common groundsel; Rate 500 g/ha): 100 | Plant response rating, Dallisgrass (dallisgrass; [3]): 40 | Plant response rating, Dallisgrass (dallisgrass; [4]): 50 | Plant response rating, Dallisgrass (dallisgrass; [5]): 100 | Plant response rating, Dallisgrass (dallisgrass; [6]): 100 | Plant response rating, Dallisgrass (dallisgrass; Rate 250 g/ha): 100 | Plant response rating, Dallisgrass (dallisgrass; Rate 500 g/ha): 100 | Plant response rating, Goosegrass (goosegrass; [3]): 60 | Plant response rating, Goosegrass (goosegrass; [4]): 85 | Plant response rating, Goosegrass (goosegrass; [5]): 98 | Plant response rating, Goosegrass (goosegrass; [6]): 100 | Plant response rating, Goosegrass (goosegrass; Rate 250 g/ha): 100 | Plant response rating, Goosegrass (goosegrass; Rate 500 g/ha): 100 | Plant response rating, Guineagrass (guineagrass; [3]): 0 | Plant response rating, Guineagrass (guineagrass; [4]): 85 | Plant response rating, Guineagrass (guineagrass; [5]): 98 | Plant response rating, Guineagrass (guineagrass; [6]): 98 | Plant response rating, Guineagrass (guineagrass; Rate 250 g/ha): 100 | Plant response rating, Guineagrass (guineagrass; Rate 500 g/ha): 100 | Plant response rating, Itchgrass (itchgrass; [3]): 0 | Plant response rating, Itchgrass (itchgrass; [4]): 20 | Plant response rating, Itchgrass (itchgrass; [5]): 30 | Plant response rating, Itchgrass (itchgrass; [6]): 40 | Plant response rating, Itchgrass (itchgrass; Rate 250 g/ha): 98 | Plant response rating, Itchgrass (itchgrass; Rate 500 g/ha): 100 | Plant response rating, Johnsongrass (Johnson grass; [3]): 0 | Plant response rating, Johnsongrass (Johnson grass; [4]): 20 | Plant response rating, Johnsongrass (Johnson grass; [5]): 20 | Plant response rating, Johnsongrass (Johnson grass; [6]): 40 | Plant response rating, Johnsongrass (Johnson grass; Rate 250 g/ha): 85 | Plant response rating, Johnsongrass (Johnson grass; Rate 500 g/ha): 85 | Plant response rating, P. morninglory (pitted morningglory; [3]): 0 | Plant response rating, P. morninglory (pitted morningglory; [4]): 0 | Plant response rating, P. morninglory (pitted morningglory; [5]): 0 | Plant response rating, P. morninglory (pitted morningglory; [6]): 0 | Plant response rating, P. morninglory (pitted morningglory; Rate 250 g/ha): 0 | Plant response rating, P. morninglory (pitted morningglory; Rate 500 g/ha): 0 | Plant response rating, Sandbur (sandbur; [3]): 0 | Plant response rating, Sandbur (sandbur; [4]): 0 | Sandbur plant response rating (sandbur; [5]): 30 | Sandbur plant response rating (sandbur; [6]): 98 | Plant response rating, Sandbur (sandbur; Rate 250 g/ha): 98 | Plant response rating, Sandbur (sandbur; Rate 500 g/ha): 100 | Plant response rating, Surinam grass (surinam grass; [3]): 0 | Plant response rating, Surinam grass (surinam grass; [4]): 65 | Surinam grass plant response rating (surinam grass; [5]): 65 | Surinam grass plant response rating (surinam grass; [6]): 98 | Plant response rating, Surinam grass (surinam grass; Rate 250 g/ha): 98 | Plant response rating, Surinam grass (surinam grass; Rate 500 g/ha): 100 | Plant response rating, Tall Mallow (tall mallow; [3]): 0 | Plant response rating, Tall Mallow (tall mallow; [4]): 0 | Tall Mallow plant response rating (tall mallow; [5]): 0 | Tall Mallow plant response rating (tall mallow; [6]): 10 | Plant response rating, Tall Mallow (tall mallow; Rate 250 g/ha): 45 | Plant response rating, Tall Mallow (tall mallow; Rate 500 g/ha): 98 | Plant response rating, Green foxtail (Green foxtail [1]; Rate 250 g/ha): 100 | Plant response rating, Green foxtail (Green foxtail [1]; Rate 500 g/ha): 100 | Plant response rating, Green foxtail (Green foxtail [2]; Preemergence; Rate 16 g/ha; 0 to 100 scale, 0 no injury, 100 complete control): 40 | Plant response rating, Green foxtail (Green foxtail [2]; Preemergence; Rate 32 g/ha; 0 to 100 scale, 0 no injury, 100 complete control): 100 | Plant response rating, Green foxtail (Green foxtail [2]; Rate 16 g/ha; Preemergence; 0 to 100 scale, 0 no injury, 100 complete control): 40 | Plant response rating, Green foxtail (Green foxtail [2]; Rate 32 g/ha; Preemergence; 0 to 100 scale, 0 no injury, 100 complete control): 100 | Green foxtail plant response rating (Green foxtail [2]; [7]): 100 | Plant response rating, Green foxtail (Green foxtail [2]; [7]): 100 | Green foxtail plant response rating (Green foxtail [2]; [8]): 100 | Plant response rating, Green foxtail (Green foxtail [2]; [8]): 100 | Plant response rating, Green foxtail (Green foxtail [2]; Rate 250 g/ha; Preemergence; 0 to 100 scale): 100 | Plant response rating, Green foxtail (Green foxtail [2]; Rate 500 g/ha, Preemergence; 0 to 100 scale): 100

Source: patent US6737383B1, “Herbicidal oxadiazolidines” (priority 1999, dated 2004)
